Data reported in patent US20230017045A1, “PYRIDINE AND PYRIMIDINE CARBOXYLATE HERBICIDES AND METHODS OF USE THEREOF” (Dow AgroSciences LLC, priority 2017, published 2023).

Each molecule was assayed on test plant species (assay: Post-emergent herbicidal activity test (greenhouse, foliar spray, visual growth reduction)). Settings: post-emergence, 336 h, ALOMY: blackgrass (Alopecurus myosuroides), 140 g ai/ha, 14 days after application, read-out: Visual Growth Reduction (%) 14 Days After Application, ALOMY.
Assay type: in vivo
Outline: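 Seedlings were raised 7-21 d in a greenhouse under a 15 h photoperiod until the first or second true leaf. Each compound, dissolved in acetone:DMSO 97:3 and diluted into a surfactant-containing spray mixture, was then applied at 187 L/ha. Plants were subirrigated, and growth reduction was scored visually at 14 d.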

SMILES | pest or weed control at 140 g/ha [%]
COC(=O)c1nc(-c2ccc(C(F)(F)F)cc2F)c(Cl)cc1Cl [F102, Methyl 3,5-dichloro-6-(2-fluoro-4-(trifluoromethyl)phenyl)picolinate] | 0 to 29
COC(=O)c1nc(-c2ccc(C(F)(F)F)c(C)c2Cl)ccc1Cl [F136, methyl 3-chloro-6-(2-chloro-3-methyl-4-(trifluoromethyl)phenyl)picolinate] | 0 to 29

Same assay, conditions: post-emergence, 336 h, AMARE: redroot pigweed (Amaranthus retroflexus), 140 g ai/ha, 14 days after application, read-out: Visual Growth Reduction (%) 14 Days After Application, AMARE

SMILES | pest or weed control at 140 g/ha [%]
COC(=O)c1nc(-c2ccc(C(F)(F)F)cc2F)c(Cl)cc1Cl [F102, Methyl 3,5-dichloro-6-(2-fluoro-4-(trifluoromethyl)phenyl)picolinate] | 45 to 59
COC(=O)c1nc(-c2ccc(C(F)(F)F)c(C)c2Cl)ccc1Cl [F136, methyl 3-chloro-6-(2-chloro-3-methyl-4-(trifluoromethyl)phenyl)picolinate] | 95 to 100

Same assay, conditions: post-emergence, 336 h, AVEFA: wild oat (Avena fatua), 140 g ai/ha, 14 days after application, read-out: Visual Growth Reduction (%) 14 Days After Application, AVEFA

SMILES | pest or weed control at 140 g/ha [%]
COC(=O)c1nc(-c2ccc(C(F)(F)F)cc2F)c(Cl)cc1Cl [F102, Methyl 3,5-dichloro-6-(2-fluoro-4-(trifluoromethyl)phenyl)picolinate] | 0 to 29
COC(=O)c1nc(-c2ccc(C(F)(F)F)c(C)c2Cl)ccc1Cl [F136, methyl 3-chloro-6-(2-chloro-3-methyl-4-(trifluoromethyl)phenyl)picolinate] | 0 to 29

Same assay, conditions: post-emergence, 336 h, CHEAL: lambsquarters (Chenopodium album), 140 g ai/ha, 14 days after application, read-out: Visual Growth Reduction (%) 14 Days After Application, CHEAL

SMILES | pest or weed control at 140 g/ha [%]
COC(=O)c1nc(-c2ccc(C(F)(F)F)cc2F)c(Cl)cc1Cl [F102, Methyl 3,5-dichloro-6-(2-fluoro-4-(trifluoromethyl)phenyl)picolinate] | 60 to 74
COC(=O)c1nc(-c2ccc(C(F)(F)F)c(C)c2Cl)ccc1Cl [F136, methyl 3-chloro-6-(2-chloro-3-methyl-4-(trifluoromethyl)phenyl)picolinate] | 75 to 84

Same assay, conditions: post-emergence, 336 h, CIRAR: canada thistle (Cirsium arvense), 140 g ai/ha, 14 days after application, read-out: Visual Growth Reduction (%) 14 Days After Application, CIRAR

SMILES | pest or weed control at 140 g/ha [%]
COC(=O)c1nc(-c2ccc(C(F)(F)F)cc2F)c(Cl)cc1Cl [F102, Methyl 3,5-dichloro-6-(2-fluoro-4-(trifluoromethyl)phenyl)picolinate] | 0 to 29
COC(=O)c1nc(-c2ccc(C(F)(F)F)c(C)c2Cl)ccc1Cl [F136, methyl 3-chloro-6-(2-chloro-3-methyl-4-(trifluoromethyl)phenyl)picolinate] | 0 to 29

Same assay, conditions: post-emergence, 336 h, CYPES: yellow nutsedge (Cyperus esculentus), 140 g ai/ha, 14 days after application, read-out: Visual Growth Reduction (%) 14 Days After Application, CYPES

SMILES | pest or weed control at 140 g/ha [%]
COC(=O)c1nc(-c2ccc(C(F)(F)F)cc2F)c(Cl)cc1Cl [F102, Methyl 3,5-dichloro-6-(2-fluoro-4-(trifluoromethyl)phenyl)picolinate] | 0 to 29
COC(=O)c1nc(-c2ccc(C(F)(F)F)c(C)c2Cl)ccc1Cl [F136, methyl 3-chloro-6-(2-chloro-3-methyl-4-(trifluoromethyl)phenyl)picolinate] | 0 to 29

Same assay, conditions: post-emergence, 336 h, DIGSA: crabgrass (Digitaria sanguinalis), 140 g ai/ha, 14 days after application, read-out: Visual Growth Reduction (%) 14 Days After Application, DIGSA

SMILES | pest or weed control at 140 g/ha [%]
COC(=O)c1nc(-c2ccc(C(F)(F)F)cc2F)c(Cl)cc1Cl [F102, Methyl 3,5-dichloro-6-(2-fluoro-4-(trifluoromethyl)phenyl)picolinate] | 0 to 29
COC(=O)c1nc(-c2ccc(C(F)(F)F)c(C)c2Cl)ccc1Cl [F136, methyl 3-chloro-6-(2-chloro-3-methyl-4-(trifluoromethyl)phenyl)picolinate] | 60 to 74

Same assay, conditions: post-emergence, 336 h, ECHCG: barnyardgrass (Echinochloa crus-galli), 140 g ai/ha, 14 days after application, read-out: Visual Growth Reduction (%) 14 Days After Application, ECHCG

SMILES | pest or weed control at 140 g/ha [%]
COC(=O)c1nc(-c2ccc(C(F)(F)F)cc2F)c(Cl)cc1Cl [F102, Methyl 3,5-dichloro-6-(2-fluoro-4-(trifluoromethyl)phenyl)picolinate] | 0 to 29
COC(=O)c1nc(-c2ccc(C(F)(F)F)c(C)c2Cl)ccc1Cl [F136, methyl 3-chloro-6-(2-chloro-3-methyl-4-(trifluoromethyl)phenyl)picolinate] | 0 to 29

Same assay, conditions: post-emergence, 336 h, IPOHE: ivy-leaf morning glory (Ipomoea hederacea), 140 g ai/ha, 14 days after application, read-out: Visual Growth Reduction (%) 14 Days After Application, IPOHE

SMILES | pest or weed control at 140 g/ha [%]
COC(=O)c1nc(-c2ccc(C(F)(F)F)cc2F)c(Cl)cc1Cl [F102, Methyl 3,5-dichloro-6-(2-fluoro-4-(trifluoromethyl)phenyl)picolinate] | 60 to 74
COC(=O)c1nc(-c2ccc(C(F)(F)F)c(C)c2Cl)ccc1Cl [F136, methyl 3-chloro-6-(2-chloro-3-methyl-4-(trifluoromethyl)phenyl)picolinate] | 95 to 100

Same assay, conditions: post-emergence, 336 h, KCHSC: kochia (Bassia scoparia), 140 g ai/ha, 14 days after application, read-out: Visual Growth Reduction (%) 14 Days After Application, KCHSC

SMILES | pest or weed control at 140 g/ha [%]
COC(=O)c1nc(-c2ccc(C(F)(F)F)cc2F)c(Cl)cc1Cl [F102, Methyl 3,5-dichloro-6-(2-fluoro-4-(trifluoromethyl)phenyl)picolinate] | 0 to 29
COC(=O)c1nc(-c2ccc(C(F)(F)F)c(C)c2Cl)ccc1Cl [F136, methyl 3-chloro-6-(2-chloro-3-methyl-4-(trifluoromethyl)phenyl)picolinate] | 45 to 59

Same assay, conditions: post-emergence, 336 h, ORYSA: rice (Oryza sativa), 140 g ai/ha, 14 days after application, read-out: Visual Growth Reduction (%) 14 Days After Application, ORYSA

SMILES | pest or weed control at 140 g/ha [%]
COC(=O)c1nc(-c2ccc(C(F)(F)F)cc2F)c(Cl)cc1Cl [F102, Methyl 3,5-dichloro-6-(2-fluoro-4-(trifluoromethyl)phenyl)picolinate] | 0 to 29
COC(=O)c1nc(-c2ccc(C(F)(F)F)c(C)c2Cl)ccc1Cl [F136, methyl 3-chloro-6-(2-chloro-3-methyl-4-(trifluoromethyl)phenyl)picolinate] | 0 to 29

Same assay, conditions: post-emergence, 336 h, SETFA: giant foxtail (Setaria faberi), 140 g ai/ha, 14 days after application, read-out: Visual Growth Reduction (%) 14 Days After Application, SETFA

SMILES | pest or weed control at 140 g/ha [%]
COC(=O)c1nc(-c2ccc(C(F)(F)F)cc2F)c(Cl)cc1Cl [F102, Methyl 3,5-dichloro-6-(2-fluoro-4-(trifluoromethyl)phenyl)picolinate] | 0 to 29
COC(=O)c1nc(-c2ccc(C(F)(F)F)c(C)c2Cl)ccc1Cl [F136, methyl 3-chloro-6-(2-chloro-3-methyl-4-(trifluoromethyl)phenyl)picolinate] | 0 to 29

Same assay, conditions: post-emergence, 336 h, SORVU: grain sorghum (Sorghum vulgare), 140 g ai/ha, 14 days after application, read-out: Visual Growth Reduction (%) 14 Days After Application, SORVU

SMILES | pest or weed control at 140 g/ha [%]
COC(=O)c1nc(-c2ccc(C(F)(F)F)cc2F)c(Cl)cc1Cl [F102, Methyl 3,5-dichloro-6-(2-fluoro-4-(trifluoromethyl)phenyl)picolinate] | 60 to 74
COC(=O)c1nc(-c2ccc(C(F)(F)F)c(C)c2Cl)ccc1Cl [F136, methyl 3-chloro-6-(2-chloro-3-methyl-4-(trifluoromethyl)phenyl)picolinate] | 75 to 84

Same assay, conditions: post-emergence, 336 h, STEME: common chickweed (Stellaria media), 140 g ai/ha, 14 days after application, read-out: Visual Growth Reduction (%) 14 Days After Application, STEME

SMILES | pest or weed control at 140 g/ha [%]
COC(=O)c1nc(-c2ccc(C(F)(F)F)cc2F)c(Cl)cc1Cl [F102, Methyl 3,5-dichloro-6-(2-fluoro-4-(trifluoromethyl)phenyl)picolinate] | 0 to 29
COC(=O)c1nc(-c2ccc(C(F)(F)F)c(C)c2Cl)ccc1Cl [F136, methyl 3-chloro-6-(2-chloro-3-methyl-4-(trifluoromethyl)phenyl)picolinate] | 0 to 29

Same assay, conditions: post-emergence, 336 h, TRZAS: wheat, spring (Triticum aestivum), 140 g ai/ha, 14 days after application, read-out: Visual Growth Reduction (%) 14 Days After Application, TRZAS

SMILES | pest or weed control at 140 g/ha [%]
COC(=O)c1nc(-c2ccc(C(F)(F)F)cc2F)c(Cl)cc1Cl [F102, Methyl 3,5-dichloro-6-(2-fluoro-4-(trifluoromethyl)phenyl)picolinate] | 0 to 29
COC(=O)c1nc(-c2ccc(C(F)(F)F)c(C)c2Cl)ccc1Cl [F136, methyl 3-chloro-6-(2-chloro-3-methyl-4-(trifluoromethyl)phenyl)picolinate] | 0 to 29
